Laboratory results reported in article PMC9668969 (Nature Communications, 2022).
Values joined by “and” are separate entries in the source; they are usually repeats but may differ in a detail not shown here. Identical values can stand only once. Like-named read-outs stand apart in the source and are kept apart here.

System: WT ELIC
Assay: Fluorescence stopped-flow liposomal Tl+ flux assay, symmetric liposomes
Format: biochemical, Erwinia chrysanthemi
Design: Tl+ flux quenching rate, Avg. / Tl+ flux quenching rate: unit not given here
Details: for time constant of activation by Tl+ flux: 10 mM propylamine; for EC50: read-out: EC50 of peak Tl+ flux rate; for Rate (stopped-flow fluorescence quenching rate) / Avg (stopped-flow fluorescence quenching rate): WT in 2:1:1 PC:PE:PG liposomes; for Rate (stopped-flow fluorescence quenching rate): single experiments; for Avg (stopped-flow fluorescence quenching rate): average of experiments
Protocol: The fluorescence sequential-mixing stopped-flow liposomal flux measurements were carried using an SX20 stopped-flow spectrofluorometer (Applied Photophysics) and Pro-Data SX software[13],[30]. 7.5 mg of the respective lipid mixture (POPC, 1:1 POPC: POPE, 1:1 POPC:POPG, 3:1 POPC:POPE, 3:1 POPC:POPG, 2:1:1 POPC:POPE:POPG) was dried in a glass vial to a thin film under a constant stream of N2. The lipids were then further dried under vacuum in a desiccator overnight. The following day the lipids were hydrated in 500 µl of reconstitution buffer (100 mM NaNO3, 10 mM HEPES, pH 7) (Buffer R), 250 µl of 75 mM 8-Aminonaphthalene-1,3,6-Trisulfonic Acid (ANTS, ThermoFisher Scientific) in buffer R, and doped with ~18 mg of CHAPS (Anatrace). The mixture was vortexed and then sonicated with heat until completely solubilized. Following the sonication, the solution was brought to RT then 3.5 µl of 6.7 mg/ml ELIC in Buffer A with 0.02% DDM was added (3 µg per mg of lipid). This combined solution was incubated at RT for 30 min, followed by the addition of 1 ml of 1:1 v/v SM-2 BioBeads in Buffer R and an additional 250 µl of 75 mM ANTS in Buffer R. This mixture was incubated at RT for 2.5 hr with gentle mixing. The liposome suspension was then extruded with an Avanti mini-extruder and 0.1 µm membrane (30×). The extruded liposomes were stored at 13 °C overnight with gentle rotation. The next day, the liposomes were diluted to 2.5 mL using assay buffer (140 mM NaNO3, 10 mM HEPES, pH 7) (Stopped-flow Buffer A), loaded into a PD-10 desalting column (Cytiva), eluted with 3 mL of Stopped-flow Buffer A and subsequently diluted 5-fold with Stopped-flow Buffer A.
Using propylamine as the agonist, the assay and analysis was carried out as previously described[13],[30]. ELIC-containing liposomes were first mixed 1:1 with Buffer A containing 2× the concentration of propylamine. After a variable delay of 10 ms to 25 s, the sample was then mixed 1:1 with a quenching buffer (90 mM NaNO3, 50 mM TlNO3, 10 mM HEPES, pH 7), and ANTS fluorescence (ex. 360 nm, fluorescence above 420 nm) was recorded for 1 s. For each delay time, 5 repeat measurements were obtained. The data were collected using Applied Photophysics Pro-Data SX software. The fluorescence quenching traces were fit to a stretched exponential (Eq. 2a) and the rate of Tl^+ influx was determined at 2 ms (Eq. 2b).2a Ft=F∞+F0−F∞⋅e^−t/τ^β 2b kt=β/τ⋅2ms/τ^(β−1) where Ft, F∞, F0 are the fluorescence at time t, final fluorescence and initial fluorescence. τ is the time constant, β the stretched exponential factor, and kt the calculated rate of Tl^+ influx at 2 ms. The time course of desensitization was also fit to a double exponential and a weighted time constant was calculated as was done for the patch-clamp data using Origin 2019b. All replicates were taken from independent samples.

SMILES: CCCN [propylamine]
- time constant of activation by Tl+ flux (2:1:1 liposomes): 41 ± 34 ms
- time constant of activation by Tl+ flux (POPC liposomes): 20 ± 6 ms
- EC50 (2:1:1 POPC:POPE:POPG liposomes, no BaCl2, Hill fit): 2400 µM and ~2000 µM
- Hill n of peak Tl+ flux dose response (2:1:1 liposomes): 2.2 ± 0.7
- Hill n of peak Tl+ flux dose response (POPC liposomes): 3.6 ± 0.6
- EC50 (POPC liposomes, Hill fit): 4300 ± 1400 µM
- Tl+ flux quenching rate, Avg. (WT 1:1 PC:PE 10 mM PA, delay 0.01 s): 12.8731
- Tl+ flux quenching rate, Avg. (WT 1:1 PC:PE 10 mM PA, delay 0.025 s): 18.7932
- Tl+ flux quenching rate, Avg. (WT 1:1 PC:PE 10 mM PA, delay 0.05 s): 16.1105
- Tl+ flux quenching rate, Avg. (WT 1:1 PC:PE 10 mM PA, delay 0.1 s): 21.9541
- Tl+ flux quenching rate, Avg. (WT 1:1 PC:PE 10 mM PA, delay 0.25 s): 19.0107
- Tl+ flux quenching rate, Avg. (WT 1:1 PC:PE 10 mM PA, delay 0.5 s): 18.8714
- Tl+ flux quenching rate, Avg. (WT 1:1 PC:PE 10 mM PA, delay 1 s): 13.7475
- Tl+ flux quenching rate, Avg. (WT 1:1 PC:PE 10 mM PA, delay 2.5 s): 11.8878
- Tl+ flux quenching rate, Avg. (WT 1:1 PC:PE 10 mM PA, delay 5 s): 9.713
- Tl+ flux quenching rate, Avg. (WT 1:1 PC:PE 10 mM PA, delay 10 s): 6.252
- Tl+ flux quenching rate, Avg. (WT 1:1 PC:PE 10 mM PA, delay 25 s): 0.8964
- Tl+ flux quenching rate, Avg. (WT 1:1 PC:PG 10 mM PA, delay 0.01 s): 3.795
- Tl+ flux quenching rate, Avg. (WT 1:1 PC:PG 10 mM PA, delay 0.025 s): 9.924
- Tl+ flux quenching rate, Avg. (WT 1:1 PC:PG 10 mM PA, delay 0.05 s): 11.1292
- Tl+ flux quenching rate, Avg. (WT 1:1 PC:PG 10 mM PA, delay 0.1 s): 12.6513
- Tl+ flux quenching rate, Avg. (WT 1:1 PC:PG 10 mM PA, delay 0.25 s): 13.2242
- Tl+ flux quenching rate, Avg. (WT 1:1 PC:PG 10 mM PA, delay 0.5 s): 14.1908
- Tl+ flux quenching rate, Avg. (WT 1:1 PC:PG 10 mM PA, delay 1 s): 14.7233
- Tl+ flux quenching rate, Avg. (WT 1:1 PC:PG 10 mM PA, delay 2.5 s): 12.796
- Tl+ flux quenching rate, Avg. (WT 1:1 PC:PG 10 mM PA, delay 5 s): 11.2973
- Tl+ flux quenching rate, Avg. (WT 1:1 PC:PG 10 mM PA, delay 10 s): 8.515
- Tl+ flux quenching rate, Avg. (WT 1:1 PC:PG 10 mM PA, delay 25 s): 1.356
- Tl+ flux quenching rate, Avg. (WT 2:1:1 PC:PE:PG 10 mM PA, delay 0.01 s): 108.066
- Tl+ flux quenching rate, Avg. (WT 2:1:1 PC:PE:PG 10 mM PA, delay 0.025 s): 129.134
- Tl+ flux quenching rate, Avg. (WT 2:1:1 PC:PE:PG 10 mM PA, delay 0.05 s): 140.06
- Tl+ flux quenching rate, Avg. (WT 2:1:1 PC:PE:PG 10 mM PA, delay 0.1 s): 141.696
- Tl+ flux quenching rate, Avg. (WT 2:1:1 PC:PE:PG 10 mM PA, delay 0.25 s): 158.52
- Tl+ flux quenching rate, Avg. (WT 2:1:1 PC:PE:PG 10 mM PA, delay 0.5 s): 169.325
- Tl+ flux quenching rate, Avg. (WT 2:1:1 PC:PE:PG 10 mM PA, delay 1 s): 150.743
- Tl+ flux quenching rate, Avg. (WT 2:1:1 PC:PE:PG 10 mM PA, delay 2.5 s): 114.107
- Tl+ flux quenching rate, Avg. (WT 2:1:1 PC:PE:PG 10 mM PA, delay 5 s): 89.8389
- Tl+ flux quenching rate, Avg. (WT 2:1:1 PC:PE:PG 10 mM PA, delay 10 s): 66.5759
- Tl+ flux quenching rate, Avg. (WT 2:1:1 PC:PE:PG 10 mM PA, delay 25 s): 19.0264
- Tl+ flux quenching rate, Avg. (WT 3:1 PC:PE 10 mM PA, delay 0.01 s): 13.3934
- Tl+ flux quenching rate, Avg. (WT 3:1 PC:PE 10 mM PA, delay 0.025 s): 16.8702
- Tl+ flux quenching rate, Avg. (WT 3:1 PC:PE 10 mM PA, delay 0.05 s): 17.8262
- Tl+ flux quenching rate, Avg. (WT 3:1 PC:PE 10 mM PA, delay 0.1 s): 25.5678
- Tl+ flux quenching rate, Avg. (WT 3:1 PC:PE 10 mM PA, delay 0.25 s): 25.5466
- Tl+ flux quenching rate, Avg. (WT 3:1 PC:PE 10 mM PA, delay 0.5 s): 29.8205
- Tl+ flux quenching rate, Avg. (WT 3:1 PC:PE 10 mM PA, delay 1 s): 23.2733
- Tl+ flux quenching rate, Avg. (WT 3:1 PC:PE 10 mM PA, delay 2.5 s): 17.3881
- Tl+ flux quenching rate, Avg. (WT 3:1 PC:PE 10 mM PA, delay 5 s): 8.6052
- Tl+ flux quenching rate, Avg. (WT 3:1 PC:PE 10 mM PA, delay 10 s): 3.015
- Tl+ flux quenching rate, Avg. (WT 3:1 PC:PE 10 mM PA, delay 25 s): 0.5341
- Tl+ flux quenching rate, Avg. (WT 3:1 PC:PG 10 mM PA, delay 0.01 s): 3.538
- Tl+ flux quenching rate, Avg. (WT 3:1 PC:PG 10 mM PA, delay 0.025 s): 5.637
- Tl+ flux quenching rate, Avg. (WT 3:1 PC:PG 10 mM PA, delay 0.05 s): 6.577
- Tl+ flux quenching rate, Avg. (WT 3:1 PC:PG 10 mM PA, delay 0.1 s): 5.156
- Tl+ flux quenching rate, Avg. (WT 3:1 PC:PG 10 mM PA, delay 0.25 s): 10.2935
- Tl+ flux quenching rate, Avg. (WT 3:1 PC:PG 10 mM PA, delay 0.5 s): 10.5897
- Tl+ flux quenching rate, Avg. (WT 3:1 PC:PG 10 mM PA, delay 1 s): 10.9346
- Tl+ flux quenching rate, Avg. (WT 3:1 PC:PG 10 mM PA, delay 2.5 s): 9.589
- Tl+ flux quenching rate, Avg. (WT 3:1 PC:PG 10 mM PA, delay 5 s): 8.149
- Tl+ flux quenching rate, Avg. (WT 3:1 PC:PG 10 mM PA, delay 10 s): 1.496
- Tl+ flux quenching rate, Avg. (WT 3:1 PC:PG 10 mM PA, delay 25 s): 1.028
- Tl+ flux quenching rate, Avg. (WT PC 10 mM PA, delay 0.01 s): 3.242
- Tl+ flux quenching rate, Avg. (WT PC 10 mM PA, delay 0.025 s): 7.793
- Tl+ flux quenching rate, Avg. (WT PC 10 mM PA, delay 0.05 s): 10.0904
- Tl+ flux quenching rate, Avg. (WT PC 10 mM PA, delay 0.1 s): 10.8806
- Tl+ flux quenching rate, Avg. (WT PC 10 mM PA, delay 0.25 s): 11.6946
- Tl+ flux quenching rate, Avg. (WT PC 10 mM PA, delay 1 s): 9.9293
- Tl+ flux quenching rate, Avg. (WT PC 10 mM PA, delay 2.5 s): 4.516
- Tl+ flux quenching rate, Avg. (WT PC 10 mM PA, delay 5 s): 0.8684
- Tl+ flux quenching rate, Avg. (WT PC 10 mM PA, delay 10 s): 0.09487
- Tl+ flux quenching rate, Avg. (WT PC 10 mM PA, delay 25 s): 0.1384
- Tl+ flux quenching rate, Avg. (WT PC 10 mM PA, delay printed 0.05 (line r87, between 0.25 and 1)): 13.718
- Rate (stopped-flow fluorescence quenching rate) (0.3 mM PA, delay time 0): 0
- Avg (stopped-flow fluorescence quenching rate) (0.3 mM PA, delay time 0.025): 0.05393
- Avg (stopped-flow fluorescence quenching rate) (0.3 mM PA, delay time 0.05): 0.1144
- Avg (stopped-flow fluorescence quenching rate) (0.3 mM PA, delay time 0.1): 0.02985
- Rate (stopped-flow fluorescence quenching rate) (0.3 mM PA, delay time 0.1, listed as PA): 0.02819 and 0.02444 and 0.03693
- Avg (stopped-flow fluorescence quenching rate) (0.3 mM PA, delay time 0.25): 0.2226
- Avg (stopped-flow fluorescence quenching rate) (0.3 mM PA, delay time 0.5): 0.07829
- Rate (stopped-flow fluorescence quenching rate) (0.3 mM PA, delay time 0.5, listed as PA): 0.05209 and 0.08034 and 0.1024
- Avg (stopped-flow fluorescence quenching rate) (0.3 mM PA, delay time 1): 0.1269
- Avg (stopped-flow fluorescence quenching rate) (0.3 mM PA, delay time 2.5): 0.07966
- Avg (stopped-flow fluorescence quenching rate) (0.3 mM PA, delay time 5): 0.1012
- Avg (stopped-flow fluorescence quenching rate) (0.3 mM PA, delay time 10): 0.07302
- Avg (stopped-flow fluorescence quenching rate) (0.3 mM PA, delay time 25): 0.144
- Rate (stopped-flow fluorescence quenching rate) (0.3 mM PA, delay time 25, listed as PA): 0.1101 and 0.1736 and 0.1484
- Rate (stopped-flow fluorescence quenching rate) (1 mM PA, delay time 0): 0
- Avg (stopped-flow fluorescence quenching rate) (1 mM PA, delay time 0.025): 0.05821
- Avg (stopped-flow fluorescence quenching rate) (1 mM PA, delay time 0.05): 0.3418
- Avg (stopped-flow fluorescence quenching rate) (1 mM PA, delay time 0.1): 0.7543
- Avg (stopped-flow fluorescence quenching rate) (1 mM PA, delay time 0.25): 9.601
- Avg (stopped-flow fluorescence quenching rate) (1 mM PA, delay time 0.5): 9.433
- Avg (stopped-flow fluorescence quenching rate) (1 mM PA, delay time 1): 13.1765
- Avg (stopped-flow fluorescence quenching rate) (1 mM PA, delay time 2.5): 13.927
- Avg (stopped-flow fluorescence quenching rate) (1 mM PA, delay time 5): 16.0207
- Avg (stopped-flow fluorescence quenching rate) (1 mM PA, delay time 10): 13.7137
- Avg (stopped-flow fluorescence quenching rate) (1 mM PA, delay time 25): 8.387
- Rate (stopped-flow fluorescence quenching rate) (3 mM PA, delay time 0): 0
- Avg (stopped-flow fluorescence quenching rate) (3 mM PA, delay time 0.05): 279.785
- Avg (stopped-flow fluorescence quenching rate) (3 mM PA, delay time 0.1): 279.666
- Avg (stopped-flow fluorescence quenching rate) (3 mM PA, delay time 0.25): 300.719
- Avg (stopped-flow fluorescence quenching rate) (3 mM PA, delay time 0.5): 352.59
- Avg (stopped-flow fluorescence quenching rate) (3 mM PA, delay time 1): 284.973
- Avg (stopped-flow fluorescence quenching rate) (3 mM PA, delay time 2.5): 176.344
